According to patent US20080076711A1, “Therapeutic agents for osteopenia” (Chugai Seiyaku Kabushiki Kaisha, priority 2001, published 2008):

How the values were obtained:
[1] = tested on: wild-type strain 129 female mice; experiment: Determination of cortical bone thickness and area after PTH treatment, wild-type mice; assay type: in vivo, mouse; conditions: WT mice, PTH(+) group, 80 μg/kg s.c., 4 weeks
Protocol: Horizontal sections were prepared from the femoral mid-diaphysis and tomographed using an X-ray microtomograph Musashi (Nittetsu-ELEX, Osaka, Japan). A Luzex-F automated image analysis system (Nireco, Tokyo, Japan) was then used for analysis of the image data to determine the thickness and area of cortical bone. The thickness was evaluated at the mean value averaged over 8 measurements every 45°. Recombinant human PTH(1-34) (Bachem, Torrance, Calif.) was dissolved in acidified physiological saline supplemented with 0.1% bovine serum albumin (Sigma Chemical Co.-Aldrich, St. Louis, Mo.). The OPN-KO mice were subcutaneously administered with 80 μg/kg of body weight human PTH(1-34) for 4 weeks on a five-days-a-week basis. Mice in the control group were administered with physiological saline alone. The effect of PTH on bone metabolism was also examined in the same manner as shown in Example 1, using wild-type strain 129 female mice (7 weeks of age). These mice were divided into groups of 6 mice each.

[2] = tested on: postmenopausal patients with osteoporosis; conditions: 100 μg/day once-daily subcutaneous injections for 6 months; cited from earlier work
[3] = tested on: wild-type strain 129 female mice; experiment: Analysis of urinary deoxypyridinoline (Dpyr) after PTH treatment, wild-type mice; assay type: in vivo, mouse; conditions: WT mice
Protocol: At 26 days after treatment with PTH, a 24-hour urine sample was collected from each mouse (10 samples per group). As a marker of bone metabolism, the level of urinary deoxypyridinoline (Dpyr) was measured for each sample using an ELISA kit (Metra Biosystems, San Diego, Calif.) in accordance with the manufacturer's protocol. Recombinant human PTH(1-34) (Bachem, Torrance, Calif.) was dissolved in acidified physiological saline supplemented with 0.1% bovine serum albumin (Sigma Chemical Co.-Aldrich, St. Louis, Mo.). The OPN-KO mice were subcutaneously administered with 80 μg/kg of body weight human PTH(1-34) for 4 weeks on a five-days-a-week basis. Mice in the control group were administered with physiological saline alone. The effect of PTH on bone metabolism was also examined in the same manner as shown in Example 1, using wild-type strain 129 female mice (7 weeks of age). These mice were divided into groups of 6 mice each.

osteoporosis patients = conditions: 21 patients, once-daily subcutaneous injections for 6 to 24 months; cited from earlier work
[4] = tested on: OPN knockout (OPN-KO) mice; experiment: Analysis of urinary deoxypyridinoline (Dpyr) after PTH treatment, OPN-KO mice; assay type: in vivo, mouse
Protocol: At 26 days after treatment with PTH, a 24-hour urine sample was collected from each mouse (10 samples per group). As a marker of bone metabolism, the level of urinary deoxypyridinoline (Dpyr) was measured for each sample using an ELISA kit (Metra Biosystems, San Diego, Calif.) in accordance with the manufacturer's protocol.
(§1) To create an animal model in which the in vivo effects of OPN were inhibited, strain 129 female mice at 7 weeks of age were modified into knockout mice deficient in the OPN gene (OPN-KO mice), as described in Rittling et al. J. Bone Miner. Res., 13: 1101-1111, 1998. These mice were singly used for PTH treatment test. They were divided into groups of 6 mice each.
(§2) Recombinant human PTH(1-34) (Bachem, Torrance, Calif.) was dissolved in acidified physiological saline supplemented with 0.1% bovine serum albumin (Sigma Chemical Co.-Aldrich, St. Louis, Mo.). The OPN-KO mice were subcutaneously administered with 80 μg/kg of body weight human PTH(1-34) for 4 weeks on a five-days-a-week basis. Mice in the control group were administered with physiological saline alone.

[5] = tested on: OPN knockout (OPN-KO) mice; experiment: BFR and MAR in cortical bone (femoral mid-diaphysis) after PTH treatment, OPN-KO mice; assay type: in vivo, mouse
Protocol: In the case of cortical bone, decalcified horizontal sections (serial sections of 3 μm thickness) were prepared from the femoral mid-diaphysis and analyzed for BFR and MAR in the periosteal and endosteal regions. More specifically, a calcium chelator calcein (4 mg/kg of body weight) was subcutaneously administered 9 days and 2 days before sampling and the interval between two labeled bands was determined under a fluorescence microscope to calculate BFR and MAR.
BFR denotes bone formation rate per unit trabecular area (μm^3/μm^2/day).
MAR denotes the rate of increase in the distance between labeled calcified bands (μm/day).
as §1, §2

[6] = tested on: OPN knockout (OPN-KO) mice; experiment: Determination of cancellous bone mass (BV/TV) after PTH treatment, OPN-KO mice; assay type: in vivo, mouse; conditions: PTH(+) group, 80 μg/kg s.c., 4 weeks, five days a week, mean ± standard error
Protocol: Sagittal sections were prepared from the metaphyseal region of femur and tomographed using an X-ray microtomograph Musashi (Nittetsu-ELEX, Osaka, Japan). A Luzex-F automated Image analysis system (Nireco, Tokyo, Japan) was then used for analysis of the image data from a 1.47 mm^2 square area (0.7 mm×2.1 mm) located 0.2 mm apart from the growth plate of the distal end of femur to obtain BV/TV values.
BV/TV (bone volume/total tissue volume) denotes the unit bone mass (%), i.e., the percentage of the total trabecular volume in the total tissue volume. Namely, an increase in BV/TV means an increase in calcified bone.
as §1, §2

[7] = tested on: wild-type strain 129 female mice; experiment: BFR and MAR in cancellous bone (distal end of femur) after PTH treatment, wild-type mice; assay type: in vivo, mouse; conditions: WT mice
Protocol: BFR denotes bone formation rate per unit trabecular area (μm^3/μm^2/day). MAR denotes the rate of increase in the distance between labeled calcified bands (μm/day). In the case of cancellous bone, decalcified sagittal sections were prepared from the metaphyseal region and analyzed for BFR and MAR in a 1.4 mm^2 square area located 0.2 mm apart from the growth plate of the distal end of femur. Labeling was accomplished by subcutaneous administration of xylenol orange (100 mg/kg of body weight) 4 days before and calcein 2 days before sampling. Recombinant human PTH(1-34) (Bachem, Torrance, Calif.) was dissolved in acidified physiological saline supplemented with 0.1% bovine serum albumin (Sigma Chemical Co.-Aldrich, St. Louis, Mo.). The OPN-KO mice were subcutaneously administered with 80 μg/kg of body weight human PTH(1-34) for 4 weeks on a five-days-a-week basis. Mice in the control group were administered with physiological saline alone. The effect of PTH on bone metabolism was also examined in the same manner as shown in Example 1, using wild-type strain 129 female mice (7 weeks of age). These mice were divided into groups of 6 mice each.

[8] = PTH(+) group, 24-hour urine at 26 days
[9] = PTH(+) group, 80 μg/kg s.c., 4 weeks

human PTH(1-34)
area of cortical bone [1]: 0.69±0.03 mm^2 | thickness of cortical bone [1]: 0.20±0.01 mm | calcium balance [2]: restored normal calcium balance | cancellous bone mass [2]: increased cancellous bone mass | urinary Dpyr level [3, 8]: 34.86±6.90 nM/mM Cr | fold increase in systemic bone resorption (urinary Dpyr) by PTH treatment ([3]; PTH(+) vs PTH(−) group, p<0.05): ~1.2 fold | calcium balance (osteoporosis patients): no improvement in calcium balance | cancellous bone mass (osteoporosis patients): increased cancellous bone mass | cortical bone mass (osteoporosis patients): reduced cortical bone mass | urinary Dpyr level [4, 8]: 34.67±4.52 nM/mM Cr | fold increase in systemic bone resorption (urinary Dpyr) by PTH treatment ([4]; PTH(+) vs PTH(−) group, p<0.05): ~1.2 fold | endosteal BFR, cortical bone [5, 9]: 0.62±0.09 μm^3/μm^2/day | endosteal MAR, cortical bone [5, 9]: 1.33±0.28 μm/day | periosteal BFR (bone formation rate), cortical bone [5, 9]: 2.38±0.18 μm^3/μm^2/day | periosteal MAR (mineral apposition rate), cortical bone [5, 9]: 2.97±0.25 μm/day | effect of PTH treatment on endosteal BFR and MAR ([5]; PTH(+) vs PTH(−) group): little effect | fold increase in periosteal BFR by PTH treatment ([5]; PTH(+) vs PTH(−) group, p<0.05): ~1.8 fold | fold increase in periosteal MAR by PTH treatment ([5]; PTH(+) vs PTH(−) group, p<0.05): ~1.2 fold | cancellous bone mass BV/TV [6]: 24.41±2.85% | BFR in cancellous bone [7, 9]: 1.85±0.08 μm^3/μm^2/day | MAR in cancellous bone [7, 9]: 4.84±0.21 μm/day | fold increase in cancellous BFR by PTH treatment ([7]; PTH(+) vs PTH(−) group, p<0.05): about 1.4 fold | fold increase in cancellous MAR by PTH treatment ([7]; PTH(+) vs PTH(−) group, p<0.05): ~1.3 fold
